14 molecules from ChEMBL document CHEMBL5029195, “Substituted Imidazole Carboxamides as Novel Antibacterial Agents” (2022) can be followed below.

One may read the IC90 as the concentration needed for an effect of 90%.

The first experiment relates to Acinetobacter baumannii. Put plainly: Antibacterial activity against Acinetobacter baumannii ATCC 17961 assessed as inhibition of bacterial growth after 16 hrs by two fold dilution method. It counts as functional.
With `COc1ccc(-c2cnc(C(=O)Nc3ccc(C(=O)N4CCC(C(=O)[C@H]5CCNC[C@H]5O)CC4)c(Cl)c3)n2C)c(F)c1F`, the IC90 was 0.09 µM. For `Cn1c(-c2ccc(OC(F)F)c(F)c2F)cnc1C(=O)Nc1ccc(C(=O)N2CCC(C(=O)N3CCC(C(N)=O)C3)CC2)c(Cl)c1` (centres undefined), the IC90 was 0.15 µM. On the same count and under the same terms, under `COc1ccc(-c2cnc(C(=O)Nc3ccc(C(=O)N4CCC(C(=O)[C@@H]5CCNC[C@H]5O)CC4)c(Cl)c3)n2C)c(F)c1F` stands 0.1 µM; under `COc1ccc(-c2cnc(C(=O)Nc3ccc(C(=O)N4CCC(CCN)CC4)c(Cl)c3)n2C)c(F)c1F`, 0.03 µM. On to `COc1ccc(-c2cnc(C(=O)Nc3ccc(C(=O)N4CCC(OCCN)CC4)c(Cl)c3)n2C)c(F)c1F`, for which the IC90 is 0.04 µM. With `Cn1c(-c2ccc(OC(F)F)c(F)c2F)cnc1C(=O)Nc1ccc(C(=O)N2CCC(C(=O)NC[C@H]3CCNC3)CC2)c(Cl)c1`, the IC90 was 0.04 µM.

For the molecule `COc1ccc(-c2cnc(C(=O)Nc3ccc(C(=O)N4CCC(C(=O)NCCC(=O)O)CC4)c(Cl)c3)n2C)c(F)c1F`, the IC90 worked out at 3.3 µM. As for `CCc1cc(NC(=O)c2ncc(-c3ccc(OC)c(F)c3F)n2C)ccc1C(=O)N1CCN(CCCN(C)C)CC1`, the IC90 came out at 0.26 µM.

In another experiment the test system is Acinetobacter baumannii. Put plainly: Antibacterial activity against Acinetobacter baumannii ATCC 17978 assessed as inhibition of bacterial growth after 16 hrs by two fold dilution method. It counts as functional.
Consider `CNCCN1CCN(C(=O)c2ccc(NC(=O)c3ncc(-c4ccc(OC)c(F)c4F)n3C)cc2Cl)CC1`, for which the IC90 was determined as 0.08 µM. Turning to `COc1ccc(-c2cnc(C(=O)Nc3ccc(C(=O)N4CCN(C(=O)[C@@H]5C[C@@H](O)CN5)CC4)c(Cl)c3)n2C)c(F)c1F`, the IC90 came out at 0.1 µM.

On to `CCc1cc(NC(=O)c2ncc(-c3ccc(OC)cc3Cl)n2C)ccc1C(=O)N1CCN(CCNC)CC1`, for which the IC90 is 2.3 µM. Regarding `Cn1c(-c2ccc(OCC#N)c(F)c2F)cnc1C(=O)Nc1ccc(C(=O)N2CCC(C(=O)N3CCSCC3)CC2)c(Cl)c1`, the IC90 was determined as 0.21 µM.

For `COc1ccc(-c2cnc(C(=O)Nc3ccc(C(=O)N4CCC(CN)CC4)c(Cl)c3)n2C)c(F)c1F`, the IC90 was 0.3 µM. As for `CN(C)CCCN1CCN(C(=O)c2ccc(NC(=O)c3ncc(-c4ccc(OCC#N)c(F)c4F)n3C)cc2Cl)CC1`, the IC90 was found to be 0.07 µM.
